Results reported in the Kinase Knowledgebase extract (Sharma et al. 2016).
Blank lines part the entries; values can stand above or below the molecule they belong to.

Key:
ROCK2 (human) [1] = target: ROCK2 (human) (UniProt O75116); assay: Enzyme Assay; conditions: for activity: concentration not given here
PIK3CA (human) [2] = target: PIK3CA (human) (UniProt P42336); assay: Assessment of PIK3CA Kinase Activity
PIK3CG (human) = PIK3CG (human) (UniProt P48736); assay: Assessment of PIK3CG Kinase Activity
PIK3CG (human), sequence (P48736 whole entry, looked up): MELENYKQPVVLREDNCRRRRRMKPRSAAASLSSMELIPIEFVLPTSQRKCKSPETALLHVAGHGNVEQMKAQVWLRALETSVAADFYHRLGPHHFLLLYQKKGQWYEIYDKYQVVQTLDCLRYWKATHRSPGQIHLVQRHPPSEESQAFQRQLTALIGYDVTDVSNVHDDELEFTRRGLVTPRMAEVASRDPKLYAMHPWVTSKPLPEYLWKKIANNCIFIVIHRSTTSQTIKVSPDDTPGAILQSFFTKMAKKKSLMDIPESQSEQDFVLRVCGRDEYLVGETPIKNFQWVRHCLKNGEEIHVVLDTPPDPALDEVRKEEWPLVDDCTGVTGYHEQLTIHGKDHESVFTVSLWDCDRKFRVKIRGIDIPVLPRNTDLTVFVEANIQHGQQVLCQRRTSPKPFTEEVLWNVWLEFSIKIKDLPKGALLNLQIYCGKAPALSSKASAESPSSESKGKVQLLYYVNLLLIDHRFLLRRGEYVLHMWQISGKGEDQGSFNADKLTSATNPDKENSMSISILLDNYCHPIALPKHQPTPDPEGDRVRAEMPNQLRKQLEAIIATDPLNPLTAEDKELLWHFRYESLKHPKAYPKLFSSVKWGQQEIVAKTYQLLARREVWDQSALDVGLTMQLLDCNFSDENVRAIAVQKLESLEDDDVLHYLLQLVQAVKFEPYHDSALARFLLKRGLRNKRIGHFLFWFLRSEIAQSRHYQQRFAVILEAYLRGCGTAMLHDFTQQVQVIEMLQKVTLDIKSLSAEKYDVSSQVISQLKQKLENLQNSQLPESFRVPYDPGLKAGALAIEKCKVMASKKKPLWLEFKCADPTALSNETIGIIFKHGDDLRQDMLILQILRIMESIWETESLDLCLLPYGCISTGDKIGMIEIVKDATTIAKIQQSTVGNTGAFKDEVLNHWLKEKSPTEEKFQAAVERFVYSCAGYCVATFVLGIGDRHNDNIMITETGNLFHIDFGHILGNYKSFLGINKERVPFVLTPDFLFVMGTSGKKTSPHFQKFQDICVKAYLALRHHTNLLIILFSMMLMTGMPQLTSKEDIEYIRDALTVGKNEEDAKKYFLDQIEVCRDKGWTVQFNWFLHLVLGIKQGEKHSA

PIK3CD (Human) [3] = target: PIK3CD (Human) (UniProt O00329); assay: Enzyme Assay
PIK3CD (Human), sequence (O00329 whole entry, looked up): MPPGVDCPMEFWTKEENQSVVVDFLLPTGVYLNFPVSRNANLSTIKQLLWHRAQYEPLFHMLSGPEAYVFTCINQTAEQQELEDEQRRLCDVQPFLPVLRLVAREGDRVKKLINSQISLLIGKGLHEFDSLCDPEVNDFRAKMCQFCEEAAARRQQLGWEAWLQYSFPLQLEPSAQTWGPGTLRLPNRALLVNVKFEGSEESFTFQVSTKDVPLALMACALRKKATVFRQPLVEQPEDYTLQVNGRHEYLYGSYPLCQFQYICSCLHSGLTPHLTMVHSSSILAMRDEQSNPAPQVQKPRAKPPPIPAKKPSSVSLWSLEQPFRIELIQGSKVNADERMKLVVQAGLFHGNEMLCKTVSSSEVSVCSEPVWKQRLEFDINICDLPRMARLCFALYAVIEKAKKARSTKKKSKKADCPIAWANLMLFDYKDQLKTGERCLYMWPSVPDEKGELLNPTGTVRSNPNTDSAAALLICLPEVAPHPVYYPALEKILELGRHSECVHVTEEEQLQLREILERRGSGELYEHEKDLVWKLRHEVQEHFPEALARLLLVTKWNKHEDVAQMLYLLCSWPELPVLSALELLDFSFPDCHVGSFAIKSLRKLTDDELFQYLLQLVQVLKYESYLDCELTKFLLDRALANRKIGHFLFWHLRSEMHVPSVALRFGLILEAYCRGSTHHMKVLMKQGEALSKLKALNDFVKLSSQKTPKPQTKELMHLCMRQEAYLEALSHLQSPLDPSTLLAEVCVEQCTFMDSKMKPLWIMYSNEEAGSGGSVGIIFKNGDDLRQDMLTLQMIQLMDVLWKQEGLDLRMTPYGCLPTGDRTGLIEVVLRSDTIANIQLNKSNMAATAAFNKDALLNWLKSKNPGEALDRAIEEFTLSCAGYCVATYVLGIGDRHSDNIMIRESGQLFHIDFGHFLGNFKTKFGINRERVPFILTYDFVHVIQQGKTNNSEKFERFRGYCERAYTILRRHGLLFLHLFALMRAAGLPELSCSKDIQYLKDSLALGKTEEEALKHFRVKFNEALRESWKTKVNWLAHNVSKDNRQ

PIK3CD (Human) [4] = target: PIK3CD (Human) (UniProt O00329); assay: Inhibition of PIK3CD Kinase Activity
PIK3CD (Human) [5] = target: PIK3CD (Human) (UniProt O00329); assay: Assessment of PIK3CD Kinase Activity
PIK3CA (human) [6] = target: PIK3CA (human) (UniProt P42336); assay: Enzyme Assay
PIK3CA (human) [7] = target: PIK3CA (human) (UniProt P42336); assay: Inhibition of PIK3CA Kinase Activity
MAPK14 (human) = MAPK14 (human) (UniProt Q16539); assay: Enzyme Assay; conditions: concentration not given here
MAPK14 (human), sequence (Q16539 whole entry, looked up): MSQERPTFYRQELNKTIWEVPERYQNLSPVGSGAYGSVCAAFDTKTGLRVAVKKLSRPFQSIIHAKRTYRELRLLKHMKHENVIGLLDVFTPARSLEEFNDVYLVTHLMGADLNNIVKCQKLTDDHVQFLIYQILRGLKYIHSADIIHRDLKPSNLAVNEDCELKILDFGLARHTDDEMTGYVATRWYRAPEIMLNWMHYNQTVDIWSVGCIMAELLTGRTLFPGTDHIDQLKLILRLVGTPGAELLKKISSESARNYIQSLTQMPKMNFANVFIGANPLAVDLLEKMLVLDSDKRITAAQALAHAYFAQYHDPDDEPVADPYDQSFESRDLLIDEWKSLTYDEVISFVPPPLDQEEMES

ROCK2 (human) [8] = target: ROCK2 (human) (UniProt O75116); assay: Inhibition of ROCK2 Kinase Activity

ROCK2 (human), sequence (O75116 whole entry, looked up): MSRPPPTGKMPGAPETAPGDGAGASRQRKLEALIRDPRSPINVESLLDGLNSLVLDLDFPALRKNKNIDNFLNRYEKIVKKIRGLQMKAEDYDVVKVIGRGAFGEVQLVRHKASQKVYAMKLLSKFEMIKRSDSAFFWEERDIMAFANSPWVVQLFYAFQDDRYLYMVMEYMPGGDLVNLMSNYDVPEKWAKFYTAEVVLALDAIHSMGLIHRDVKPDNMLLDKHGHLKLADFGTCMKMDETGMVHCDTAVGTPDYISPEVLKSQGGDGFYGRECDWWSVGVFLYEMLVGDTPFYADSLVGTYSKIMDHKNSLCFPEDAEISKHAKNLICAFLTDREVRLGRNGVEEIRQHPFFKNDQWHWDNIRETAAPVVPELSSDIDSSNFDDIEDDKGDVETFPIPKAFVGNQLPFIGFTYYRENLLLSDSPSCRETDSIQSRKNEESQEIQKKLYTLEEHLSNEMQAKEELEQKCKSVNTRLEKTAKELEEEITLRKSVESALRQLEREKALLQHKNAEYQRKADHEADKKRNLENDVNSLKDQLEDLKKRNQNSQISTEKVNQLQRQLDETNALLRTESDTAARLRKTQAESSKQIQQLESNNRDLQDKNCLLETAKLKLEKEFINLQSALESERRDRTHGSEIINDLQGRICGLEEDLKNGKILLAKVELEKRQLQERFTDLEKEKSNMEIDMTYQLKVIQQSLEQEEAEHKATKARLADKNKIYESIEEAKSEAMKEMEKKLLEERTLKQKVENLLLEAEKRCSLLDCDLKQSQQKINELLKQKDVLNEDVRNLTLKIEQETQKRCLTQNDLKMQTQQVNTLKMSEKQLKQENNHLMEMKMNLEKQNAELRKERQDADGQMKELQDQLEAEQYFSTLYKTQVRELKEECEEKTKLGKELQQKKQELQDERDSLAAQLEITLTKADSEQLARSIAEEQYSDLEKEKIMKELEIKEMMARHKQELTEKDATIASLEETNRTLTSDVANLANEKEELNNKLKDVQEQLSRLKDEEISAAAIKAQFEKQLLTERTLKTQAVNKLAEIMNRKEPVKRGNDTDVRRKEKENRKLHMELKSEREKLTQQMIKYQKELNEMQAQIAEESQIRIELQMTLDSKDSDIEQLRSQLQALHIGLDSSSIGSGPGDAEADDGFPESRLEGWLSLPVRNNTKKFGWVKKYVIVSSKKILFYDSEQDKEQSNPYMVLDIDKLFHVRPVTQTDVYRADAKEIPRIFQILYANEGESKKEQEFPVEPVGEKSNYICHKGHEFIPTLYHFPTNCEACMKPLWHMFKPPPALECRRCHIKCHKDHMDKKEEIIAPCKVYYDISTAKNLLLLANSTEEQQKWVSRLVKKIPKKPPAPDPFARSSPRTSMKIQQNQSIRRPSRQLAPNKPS
PIK3CA (human), sequence (P42336 whole entry, looked up): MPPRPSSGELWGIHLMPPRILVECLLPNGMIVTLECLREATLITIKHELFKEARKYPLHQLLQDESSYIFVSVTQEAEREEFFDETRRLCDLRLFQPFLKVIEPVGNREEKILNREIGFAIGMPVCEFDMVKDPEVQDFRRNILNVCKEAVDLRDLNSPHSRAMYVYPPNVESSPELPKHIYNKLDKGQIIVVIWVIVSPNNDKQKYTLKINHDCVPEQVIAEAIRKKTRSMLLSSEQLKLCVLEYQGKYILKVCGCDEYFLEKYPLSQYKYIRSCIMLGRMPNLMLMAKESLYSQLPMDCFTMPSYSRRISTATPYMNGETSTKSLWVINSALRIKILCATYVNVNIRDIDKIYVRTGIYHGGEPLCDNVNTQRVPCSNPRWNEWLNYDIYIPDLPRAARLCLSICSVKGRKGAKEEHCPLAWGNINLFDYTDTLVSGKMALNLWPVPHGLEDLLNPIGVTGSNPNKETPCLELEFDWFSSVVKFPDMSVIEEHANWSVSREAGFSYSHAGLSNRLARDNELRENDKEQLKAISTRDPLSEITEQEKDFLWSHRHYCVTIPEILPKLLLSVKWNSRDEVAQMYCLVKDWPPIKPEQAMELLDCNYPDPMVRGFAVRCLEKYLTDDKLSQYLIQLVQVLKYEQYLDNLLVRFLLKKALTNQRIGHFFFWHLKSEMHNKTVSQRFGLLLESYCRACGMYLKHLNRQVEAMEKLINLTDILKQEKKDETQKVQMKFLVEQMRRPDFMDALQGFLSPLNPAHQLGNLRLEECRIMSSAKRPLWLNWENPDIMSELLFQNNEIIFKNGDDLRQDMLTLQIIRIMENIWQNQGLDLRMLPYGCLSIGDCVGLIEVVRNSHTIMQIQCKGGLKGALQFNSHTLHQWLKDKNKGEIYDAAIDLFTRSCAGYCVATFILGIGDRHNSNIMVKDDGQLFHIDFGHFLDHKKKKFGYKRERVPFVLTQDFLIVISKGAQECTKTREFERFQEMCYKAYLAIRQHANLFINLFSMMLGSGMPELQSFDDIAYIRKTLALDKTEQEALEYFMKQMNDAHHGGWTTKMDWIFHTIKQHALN

SMILES: CN1C(=O)COc2ccc(/C=C3\SC(=O)NC3=O)cc21
IC50 (PIK3CD (Human) [4]): 20 µM

SMILES: CC[C@H](Nc1ncnc(N)c1-c1nc(C)no1)c1cc2cccc(C)c2c(=O)n1-c1ccccc1
IC50 (PIK3CD (Human) [3]): 0.011 µM

SMILES: O=C1NC(=O)/C(=C/c2ccc3cc(F)oc3c2)S1
IC50 (PIK3CD (Human) [4]): 20 µM

SMILES: CNC(=O)C[C@@H](NC(=O)c1ccc(-c2cn[nH]c2)c(C)c1)c1ccccc1
IC50 (ROCK2 (human) [1]): 0.0217 µM

SMILES: C[C@H](Nc1ncnc(N)c1C#N)c1nc2ccc(F)cc2c(C(=O)O)c1-c1ccccc1
Ki (PIK3CD (Human) [5]): 0.0742 µM

SMILES: O=S(=O)(NCCNC/C=C/c1ccc(Br)cc1)c1cccc2cnccc12
activity (ROCK2 (human) [1]): 0%

SMILES: N=C1NC(=O)/C(=C/c2ccc3c(c2)OCO3)S1
IC50 (PIK3CD (Human) [4]): 20 µM
IC50 (PIK3CA (human) [7]): 20 µM

SMILES: CC(C)COC(=O)c1cccc(NC(=O)c2cccc(-c3cc(C(=O)Nc4ccncc4F)ccc3CN)c2)c1
IC50 (ROCK2 (human) [1]): 0.0026 µM

SMILES: CC(Nc1ncnc2[nH]cnc12)c1cc(Cl)c2cncn2c1-c1cccc(F)c1 (configuration not stated)
IC50 (PIK3CD (Human) [5]): ≤ 0.05 µM

SMILES: Cc1nnc(-c2c(N)ncnc2NC(C)c2cc3cccc(Cl)c3nc2-c2ccccn2)o1 (configuration not stated)
IC50 (PIK3CD (Human) [3]): 0.081 µM

SMILES: Fc1ccc(Cl)c(-c2nc3c(Cl)cccc3cc2CNc2ncnc3[nH]cnc23)c1
IC50 (PIK3CD (Human) [4]): 0.071 µM

SMILES: CC(Nc1ncnc(N)c1C#N)c1nc2ccc(F)cc2c(C(=O)N(C)C)c1-c1ccccn1 (configuration not stated)
Ki (PIK3CD (Human) [5]): 0.00777 µM

SMILES: CO[C@H]1C[C@@H]2CC[C@@H](C)[C@@](O)(O2)C(=O)C(=O)N2CCCC[C@H]2C(=O)O[C@H]([C@H](C)C[C@@H]2CC[C@@H](O)[C@H](OC)C2)CC(=O)[C@H](C)C=C(C)[C@@H](O)[C@@H](OC)C(=O)[C@H](C)C[C@H](C)C=CC=CC=C1C
activity (ROCK2 (human) [1]): 106%
activity (MAPK14 (human)): 93%

SMILES: CC(C)Oc1ccc(-c2nn(C(C)c3oc4ccccc4c(=O)c3-c3cccc(F)c3)c3ncnc(N)c23)cc1Cl (configuration not stated)
IC50 (PIK3CD (Human) [3]): < 0.25 µM

SMILES: COc1ccc2sc(C(=O)Nc3nnn[nH]3)c(Sc3cccc(Cl)c3Cl)c2c1
IC50 (PIK3CG (human)): 3.45 µM

SMILES: COc1cc2c(Sc3cccc(Cl)c3)c(C(=O)Nc3nnn[nH]3)sc2cc1C
IC50 (PIK3CG (human)): 0.17 µM

SMILES: Nc1ncnc2c1c(I)nn2Cc1cc2c(Cl)cccc2nc1-c1ccccc1Cl
IC50 (PIK3CD (Human) [4]): 0.035 µM

SMILES: COc1ccc2sc(C(=O)Nc3nnn[nH]3)c(Sc3ccoc3C)c2c1
IC50 (PIK3CG (human)): 2.21 µM

SMILES: O=C1NC(=O)/C(=C/c2ccc3c(c2)OCCO3)S1
IC50 (PIK3CD (Human) [4]): 20 µM

SMILES: C[C@H](Nc1ncnc(N)c1C(N)=O)c1nc2ccc(F)cc2c(C(=O)O)c1-c1ccccc1
Ki (PIK3CD (Human) [5]): 0.00716 µM

SMILES: Cc1ncc2c(Cl)cc(C(C)Nc3ncnc4[nH]cnc34)c(-c3cccc(F)c3)n12 (configuration not stated)
IC50 (PIK3CD (Human) [5]): ≤ 0.05 µM

SMILES: COc1ccc(C2=NNC(=O)C2=NNc2ccccc2)cn1
Ki (PIK3CG (human)): 0.54 µM

SMILES: COc1cc2sc(C(=O)Nc3nnn[nH]3)c(SCCc3ccccc3)c2cc1OC
IC50 (PIK3CG (human)): 0.522 µM

SMILES: Nc1nc(Nc2cc(F)c(Sc3ccncc3)c(Cl)c2)cc(N2C[C@H]3CCCN[C@H]3C2)n1
IC50 (ROCK2 (human) [8]): 0.006 µM

SMILES: Nc1cccc(CN2CC[C@@H](Nc3cccc4cnccc34)C2)c1
IC50 (ROCK2 (human) [1]): 0.025 µM

Now from value to molecule:

IC50 (ROCK2 (human) [1]): 0.0497 µM
SMILES: COc1cc(C(=O)NCc2cccc(Cl)c2)ccc1-c1cn[nH]c1

IC50 (PIK3CA (human) [2]): 1.34 µM
IC50 (PIK3CG (human)): 6.74 µM
SMILES: Oc1cncc(-c2nc(C3=CCOCC3)c3ncn(C4CCN(Cc5cncc(Br)c5)CC4)c3n2)c1

IC50 (PIK3CD (Human) [3]): 0.004 µM
SMILES: COc1ncc(N2CCc3ncnc(N[C@H]4CCN(C(=O)[C@H]5CC[C@H](OC)CC5)C4)c3C2)cc1C(F)(F)F

IC50 (PIK3CG (human)): 0.00794 µM
SMILES: CNS(=O)(=O)c1cncc(-c2ccc3nc(NC(C)=O)nn3c2)c1

IC50 (PIK3CD (Human) [3]): 1.1 µM
SMILES: Nc1ccc(-c2nc(N3CCOCC3)c3ncccc3n2)cc1

IC50 (PIK3CG (human)): 0.18 µM
SMILES: Cc1nc(Nc2cc(C(=O)O)n(C)c2)nc2c1ccc(=O)n2C1CCCC(C)C1 (configuration not stated)

IC50 (PIK3CG (human)): 0.16 µM
SMILES: CCOC(=O)c1cc(Nc2nc(C)c3cc(F)c(=O)n(C4CCCC4)c3n2)cn1CCc1ccccc1

Ki (PIK3CA (human) [6]): 5.8 µM
Ki (PIK3CD (Human) [3]): 4 µM
SMILES: CCNC(=O)Nc1ccc(-c2nc(N3CCOC[C@H]3C)c3c(ncn3C)n2)cc1

IC50 (PIK3CA (human) [6]): 0.118 µM
IC50 (PIK3CD (Human) [3]): 0.004 µM
SMILES: COc1ncc(N2CCc3ncnc(N[C@H]4CCN(C(=O)[C@H]5CC[C@@H](O)CC5)C4)c3C2)cc1C(F)(F)F

IC50 (PIK3CD (Human) [3]): 0.1 to 0.5 µM
SMILES: Nc1ncnc2c1c(-c1cc3cccc(O)c3[nH]1)nn2C1CCOCC1

Ki (PIK3CD (Human) [5]): 0.051 µM
SMILES: Cc1c(-c2ccccc2[S+](C)[O-])nc2cc(F)cc(F)c2c1Nc1cc(N2CCOCC2)cnc1N1CCOCC1 (configuration not stated)

Ki (PIK3CA (human) [6]): 6.4 µM
Ki (PIK3CD (Human) [3]): 7.3 µM
SMILES: CCNC(=O)Nc1ccc(-c2nc(N3CCCOCC3)c3c(ncn3C)n2)cc1

IC50 (ROCK2 (human) [1]): 24.3 µM
SMILES: COc1ccc2c(c1)CN(c1nc3c(c(Nc4ccc5[nH]ncc5c4)n1)CNC3)C2

IC50 (PIK3CA (human) [2]): 1.84 µM
IC50 (PIK3CG (human)): 0.21 µM
SMILES: CCNC(=O)Oc1nc2cc(-c3nc(N4CCOCC4)c4ccn(CC(F)(F)F)c4n3)ccc2[nH]1

IC50 (PIK3CD (Human) [3]): 100 µM
SMILES: COCCOn1ccc(-c2ccc3nc(N)sc3c2)cc1=O

IC50 (PIK3CG (human)): 0.063 µM
SMILES: CCOC(=O)c1cc(Nc2nc(C)c3ccc(=O)n(C)c3n2)cn1CCc1ccccc1

Ki (PIK3CG (human)): < 0.1 µM
SMILES: COc1cc(C#Cc2cc(NC(=O)NCCOCC3CC3)nn2C)cnc1OC

Ki (PIK3CG (human)): < 0.1 µM
SMILES: CC(=O)Nc1nc(C)c(-c2ccc(S(=O)(=O)N[C@H](CO)c3ccccc3)o2)s1

IC50 (PIK3CG (human)): 0.148 µM
SMILES: Cc1nc(Nc2cc(C(=O)O)n(CCc3ccccc3)c2)nc2c1ccc(=O)n2C

IC50 (PIK3CD (Human) [4]): < 0.1 µM
SMILES: CN1CCC(c2ccccc2CC(C)(C)Nc2nc(N3CCOCC3)nc(-n3c(C(F)F)nc4ccccc43)n2)C1 (configuration not stated)
